Source: patent US11759462B2, “Spirocyclic compounds as tryptophan hydroxylase inhibitors” (priority 2013, dated 2023)

Tests used:
[1] = target: T1, Recombinant human TPH1 (MBP tagged) (Homo sapiens, UniProt P17752); assay: TPH1 in vitro inhibition assay (kinetic fluorescence); format: biochemical; conditions: read-out: TPH1 Range (TPH1 inhibition IC50)
T1 construct: cloning full length human TPH1 cDNA in to a bacterial pMAL-c5E expression vector; made in house; host or cells: E. coli BL21 (DE3)
T1 sequence (P17752 1-444): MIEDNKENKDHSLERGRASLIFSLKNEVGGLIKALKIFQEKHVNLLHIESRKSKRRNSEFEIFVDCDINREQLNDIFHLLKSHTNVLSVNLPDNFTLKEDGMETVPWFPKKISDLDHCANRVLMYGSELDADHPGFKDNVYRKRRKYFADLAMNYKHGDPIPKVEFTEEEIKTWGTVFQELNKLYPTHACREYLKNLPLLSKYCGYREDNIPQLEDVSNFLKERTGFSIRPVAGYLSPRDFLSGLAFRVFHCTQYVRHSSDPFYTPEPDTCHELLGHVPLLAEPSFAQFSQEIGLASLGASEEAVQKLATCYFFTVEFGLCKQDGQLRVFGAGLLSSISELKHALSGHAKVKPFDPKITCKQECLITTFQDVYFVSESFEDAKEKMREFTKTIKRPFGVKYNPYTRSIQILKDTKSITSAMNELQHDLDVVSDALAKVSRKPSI
How it was run: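 Final mix: 15 nM MBP-TPH1, 30 μM Trp, 36 μM 6-methyltetrahydropterin, 25 μM ferrous ammonium sulfate, 50 mM MES pH 7.1, 1% DMSO, room temperature.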

[2] = system: jejunal mucosal 5-HT in mice (C57 BL6); assay: Intestinal 5-HT depletion assay (Example B, single 150 mg/kg oral dose); format: in vivo, mouse; conditions: one day after oral administration of a single 150 mg/kg dose, P-value class (ANOVA)
Protocol: The efficacy of the TPH1 inhibitors of the invention was assessed for the ability to decrease intestinal serotonin concentration in mice. Mice (C57 BL6) were administered a single 150 mg/kg dose of test article by oral gavage. Each animal was euthanized by exsanguination under isoflurane anesthesia. Jejunal intestinal mucosa was isolated and homogenized in 300 μL of a buffer containing 0.3M trichloroacetic acid, 0.1M sodium acetate, 10 mM EDTA, 20 mM sodium bisulfate and 50 mM ascorbic acid. Following centrifugation the 5-HT levels in the supernatants were measured by HPLC. The remaining mucosal pellet was solubilized overnight at 37° C. in a 0.1% sodium dodecyl sulfate buffer in 0.1N NaOH followed by determination of protein concentrations using a BCA protein assay (Pierce, Rockford, Ill. 5-HT levels were normalized to protein and data were expressed as mean percent reduction of mucosal 5-HT levels relative to vehicle control SEM (percent 5-HT reduction). All animal studies were carried out with protocols approved by the Institutional Animal Care and Use Committee.
P-values, indicating statistical significance of the data (ANOVA) are provided in the table: * refers to P<0.05, ** refers to P<0.01, *** refers to P<0.005, and refers to P<0.0005.

Molecule	IC50 [1] [nM]	Efficacy (statistical significance of reduction of mucosal 5-HT concentrations relative to vehicle) [2]
Cc1ccn(-c2cc(-c3ccncc3)ccc2[C@@H](Oc2cc(N3CCC4(CC3)CN[C@H](C(=O)O)C4)nc(N)n2)C(F)(F)F)n1 [Example 1g, (S)-8-(2-amino-6-((R)-2,2,2-trifluoro-1-(2-(3-methyl-1H-pyrazol-1-yl)-4-(pyridin-4-yl)phenyl)ethoxy)pyrimidin-4-yl)-2,8-diazaspiro[4.5]decane-3-carboxylic acid]	< 50	*** (*** refers to P<0.005)
Cc1ccn(-c2cc(-c3cnn(C)c3)ccc2[C@@H](Oc2cc(N3CCC4(CC3)CN[C@H](C(=O)O)C4)nc(N)n2)C(F)(F)F)n1 [Example 1h, (S)-8-(2-amino-6-((R)-2,2,2-trifluoro-1-(2-(3-methyl-1H-pyrazol-1-yl)-4-(1-methyl-1H-pyrazol-4-yl)phenyl)ethoxy)pyrimidin-4-yl)-2,8-diazaspiro[4.5]decane-3-carboxylic acid]	< 50	** (** refers to P<0.01)
Cc1ccn(-c2cc(-c3ccc4c(C)n[nH]c4c3)ccc2[C@@H](Oc2cc(N3CCC4(CC3)CN[C@H](C(=O)O)C4)nc(N)n2)C(F)(F)F)n1 [Example 1o, (S)-8-(2-amino-6-((R)-2,2,2-trifluoro-1-(4-(3-methyl-1H-indazol-6-yl)-2-(3-methyl-1H-pyrazol-1-yl)phenyl)ethoxy)pyrimidin-4-yl)-2,8-diazaspiro[4.5]decane-3-carboxylic acid]	< 50	** (** refers to P<0.01)
Cc1ccn(-c2cc(-c3ccc(C(C)(C)C)cc3)ccc2[C@@H](Oc2cc(N3CCC4(CC3)CN[C@H](C(=O)O)C4)nc(N)n2)C(F)(F)F)n1 [Example 1p, (S)-8-(2-amino-6-((R)-1-(4′-(tert-butyl)-3-(3-methyl-1H-pyrazol-1-yl)-[1,1′-biphenyl]-4-yl)-2,2,2-trifluoroethoxy)pyrimidin-4-yl)-2,8-diazaspiro[4.5]decane-3-carboxylic acid]	< 50	** (** refers to P<0.01)
CC(=O)NCCc1ccc(-c2ccc([C@@H](Oc3cc(N4CCC5(CC4)CN[C@H](C(=O)O)C5)nc(N)n3)C(F)(F)F)c(-n3ccc(C)n3)c2)cc1 [Example 1y, (S)-8-(6-((R)-1-(4′-(2-acetamidoethyl)-3-(3-methyl-1H-pyrazol-1-yl)-[1,1′-biphenyl]-4-yl)-2,2,2-trifluoroethoxy)-2-aminopyrimidin-4-yl)-2,8-diazaspiro[4.5]decane-3-carboxylic acid]	< 50	** (** refers to P<0.01)
COc1ccc([C@@H](Oc2cc(N3CCC4(CC3)CNC(C(=O)O)C4)nc(N)n2)C(F)(F)F)c(-n2ccc(C)n2)c1 (stereo partly drawn) [Example 10j, 8-(2-amino-6-((R)-2,2,2-trifluoro-1-(4-methoxy-2-(3-methyl-1H-pyrazol-1-yl)phenyl)ethoxy)pyrimidin-4-yl)-2,8-diazaspiro[4.5]decane-3-carboxylic acid]	50 to 300	**** (and refers to P<0.0005)
Cc1ccn(-c2ccc(Cl)cc2[C@@H](Oc2cc(N3CCC4(CC3)CNC(C(=O)O)C4)nc(N)n2)C(F)(F)F)n1 (stereo partly drawn) [Example 10k, 8-(2-amino-6-((R)-1-(5-chloro-2-(3-methyl-1H-pyrazol-1-yl)phenyl)-2,2,2-trifluoroethoxy)pyrimidin-4-yl)-2,8-diazaspiro[4.5]decane-3-carboxylic acid]	50 to 300	* (* refers to P<0.05)
Cc1ccc([C@@H](Oc2cc(N3CCC4(CC3)CN[C@H](C(=O)O)C4)nc(N)n2)C(F)(F)F)c(-n2ccc(C)n2)n1 [Example 11, (S)-8-(2-amino-6-((R)-2,2,2-trifluoro-1-(6-methyl-2-(3-methyl-1H-pyrazol-1-yl)pyridin-3-yl)ethoxy)pyrimidin-4-yl)-2,8-diazaspiro[4.5]decane-3-carboxylic acid]	50 to 300	**** (and refers to P<0.0005)
CCOC(=O)[C@@H]1CC2(CCN(c3cc(O[C@H](c4ccc(-c5ccc(OC)c(OC)c5)cc4)C(F)(F)F)nc(N)n3)CC2)CN1 [Example 63g, (S)-ethyl 8-(2-amino-6-((R)-1-(3′,4′-dimethoxy-[1,1′-biphenyl]-4-yl)-2,2,2-trifluoroethoxy)pyrimidin-4-yl)-2,8-diazaspiro[4.5]decane-3-carboxylate]		*** (*** refers to P<0.005)
CCCCCOC(=O)[C@@H]1CC2(CCN(c3cc(O[C@H](c4ccc(Cl)cc4-n4ccc(C)n4)C(F)(F)F)nc(N)n3)CC2)CN1 [Example 64c, (S)-pentyl 8-(2-amino-6-((R)-1-(4-chloro-2-(3-methyl-1H-pyrazol-1-yl)phenyl)-2,2,2-trifluoroethoxy)pyrimidin-4-yl)-2,8-diazaspiro[4.5]decane-3-carboxylate]		**** (and refers to P<0.0005)
CCCOC(=O)[C@@H]1CC2(CCN(c3cc(O[C@H](c4ccc(Cl)cc4-n4ccc(C)n4)C(F)(F)F)nc(N)n3)CC2)CN1 [Example 64e, (S)-propyl 8-(2-amino-6-((R)-1-(4-chloro-2-(3-methyl-1H-pyrazol-1-yl)phenyl)-2,2,2-trifluoroethoxy)pyrimidin-4-yl)-2,8-diazaspiro[4.5]decane-3-carboxylate]		**** (and refers to P<0.0005)
Cc1ccn(-c2cc(Cl)ccc2[C@@H](Oc2cc(N3CCC4(CC3)CN[C@H](C(=O)OCC(C)(C)C)C4)nc(N)n2)C(F)(F)F)n1 [Example 64f, (S)-neopentyl 8-(2-amino-6-((R)-1-(4-chloro-2-(3-methyl-1H-pyrazol-1-yl)phenyl)-2,2,2-trifluoroethoxy)pyrimidin-4-yl)-2,8-diazaspiro[4.5]decane-3-carboxylate]		**** (and refers to P<0.0005)
CCCCOC(=O)[C@@H]1CC2(CCN(c3cc(O[C@H](c4ccc(Cl)cc4-n4ccc(C)n4)C(F)(F)F)nc(N)n3)CC2)CN1 [Example 64g, (S)-butyl 8-(2-amino-6-((R)-1-(4-chloro-2-(3-methyl-1H-pyrazol-1-yl)phenyl)-2,2,2-trifluoroethoxy)pyrimidin-4-yl)-2,8-diazaspiro[4.5]decane-3-carboxylate]		* (* refers to P<0.05)
Cc1ccn(-c2cc(Cl)ccc2[C@@H](Oc2cc(N3CCC4(CC3)CN[C@H](C(=O)OC(C)(C)C)C4)nc(N)n2)C(F)(F)F)n1 [Example 65a, (S)-Tert-butyl 8-(2-amino-6-((R)-1-(4-chloro-2-(3-methyl-1H-pyrazol-1-yl)phenyl)-2,2,2-trifluoroethoxy)pyrimidin-4-yl)-2,8-diazaspiro[4.5]decane-3-carboxylate]		**** (and refers to P<0.0005)
Cc1ccn(-c2cc(Cl)ccc2[C@@H](Oc2cc(N3CCC4(CC3)CN[C@H](C(=O)OCCOC(=O)[C@H](N)C(C)C)C4)nc(N)n2)C(F)(F)F)n1 [Example 66c, (S)-2-(((R)-2-amino-3-methylbutanoyl)oxy)ethyl 8-(2-amino-6-((R)-1-(4-chloro-2-(3-methyl-1H-pyrazol-1-yl)phenyl)-2,2,2-trifluoroethoxy)pyrimidin-4-yl)-2,8-diazaspiro[4.5]decane-3-carboxylate]		**** (and refers to P<0.0005)
(S)-2-(pivaloyloxy)ethyl 8-(2-amino-6- ((R)-1-(4-chloro-2-(3-methyl-1H-pyrazol- 1-yl)phenyl)-2,2,2- trifluoroethoxy)pyrimidin-4-yl)-2,8- diazaspiro[4.5]decane-3-carboxylate [Example 66d]		**** (and refers to P<0.0005)
(S)-isopropyl 8-(2-amino-6-((R)-1-(4-chloro-2-(3-methyl- 1H-pyrazol-1-yl)phenyl)-2,2,2-trifluoroethoxy)pyrimidin- 4-yl)-2,8-diazaspiro[4.5]decane-3-carboxylate [Example 64h]		** (** refers to P<0.01)
